# In patent US20170216350A1, “COMPOSITIONS OF ALUMINUM FLUORIDE AND METHODS OF USE THEREOF FOR THE TREATMENT AND PREVENTION OF ACTINIC KERATOSIS AND SUN-INDUCED DAMAGES” (priority 2012, published 2017):
# System: actinic keratosis lesions
# Settings: twice daily
# Text: A cream was applied on dry skin, on the whole forehead, twice daily. Aluminum fluoride at 0.30% w/w was used in a base cream containing Caprylic/Capric acids, sulfur, resorcinol, medium chain triglycerides, PEG 400, Pluronic F127, Ylang ylang oil and water .
# Patient 2 is a person having actinic keratosis on their nose, in particular, two ulcers of about 1 mm each. The aluminum fluoride composition was at 0.30% w/w, and the base cream was modified to a cream containing deionized water, arachidyl alcohol, behenyl alcohol, arachidyl glucoside, montanoV 202, cetearyl alcohol, capric/caprilic triglyceride, isopropyl palmitate, steareth-2, dimethicon, steareth-20, allantoin, propylene glycol, Methylisothiazolinone (sheromix MT) and sodium benzoate.
# A cream was applied on dry skin, on the cheek, twice daily. Aluminum fluoride at 0.30% w/w was used in a base cream containing Caprylic/Capric triglycerides, a polyethylene glycol component, hydrophilic non-ionic surfactant and purified water.
# A cream was applied on dry skin, on the whole forehead, twice daily. Aluminum fluoride at 0.30% w/w was used in a base cream containing Caprylic/Capric triglycerides, a polyethylene glycol component, hydrophilic non-ionic surfactant and purified water.
substance,measurement,setting,value
aluminum fluoride,actinic keratosis lesions (FIG. 1A/1B),"Patient 1, 8th decade, 0.30% w/w in base cream (Caprylic/Capric acids, sulfur, resorcinol, MCT, PEG 400, Pluronic F127), whole forehead, 3 weeks",gradual disappearance of lesions
same,vascularization (FIG. 2(ii) compared to FIG. 2(i)),"Patient 2, 0.30% w/w in modified base cream",major decrease in vascularization
same,actinic keratosis ulcers on nose (two ulcers of about 1 mm each),"Patient 2, 0.30% w/w in modified base cream, after approximately three weeks",closure of the first ulcer and disappearance of the second ulcer
same,actinic keratosis lesions (FIG. 3A/3B),"Patient 6, 6th decade, 0.30% w/w in base cream (Caprylic/Capric triglycerides, polyethylene glycol component, non-ionic surfactant, water), cheek, 12 weeks",disappearance of lesions
same,actinic keratosis lesions (FIG. 4A/4B),"Patient 13, 6th decade, 0.30% w/w in base cream (Caprylic/Capric triglycerides, polyethylene glycol component, non-ionic surfactant, water), whole forehead, 10 weeks",disappearance of lesions
